Results: PubChem BioAssay (NCI)
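Cells were grown in 96-well plates and exposed to each compound for 48 hours at five concentrations; endpoints were interpolated linearly between bracketing concentrations, or set to the highest concentration if not reached. GI50: concentration for 50% inhibition of growth. The concentration for full growth arrest is given as TGI.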

What was measured:
Assay in all cases: inhibition of tumour cell growth, NCI panel, 48 h
[1] = system: 786-0 renal
[2] = system: A498 renal
[3] = system: A549 NSCLC
[4] = system: ACHN renal
[5] = system: BT-549 breast
[6] = system: CAKI-1 renal
[7] = system: CCRF-CEM leukemia
[8] = system: COLO 205 colon
[9] = system: DU-145 prostate
[10] = system: EKVX NSCLC
[11] = system: HCC-2998 colon
[12] = system: HCT-116 colon
[13] = system: HCT-15 colon
[14] = system: HL-60(TB) leukemia
[15] = system: HOP-62 NSCLC
[16] = system: HOP-92 NSCLC
[17] = system: HS 578T breast
[18] = system: HT29 colon
[19] = system: IGROV1 ovarian
[20] = system: K-562 leukemia
[21] = system: KM12 colon
[22] = system: LOX IMVI melanoma
[23] = system: M14 melanoma
[24] = system: MALME-3M melanoma
[25] = system: MCF7 breast
[26] = system: MDA-MB-231 breast
[27] = system: MDA-MB-435
[28] = system: MOLT-4 leukemia
[29] = system: NCI-H226 lung
[30] = system: NCI-H23 lung
[31] = system: NCI-H460 lung
[32] = system: NCI-H522 lung
[33] = system: NCI/ADR-RES ovarian
[34] = system: OVCAR-3 ovarian
[35] = system: OVCAR-4 ovarian
[36] = system: OVCAR-5 ovarian
[37] = system: OVCAR-8 ovarian
[38] = system: PC-3 prostate
[39] = system: RPMI-8226 leukemia
[40] = system: RXF 393 renal
[41] = system: SF-268 CNS
[42] = system: SF-295 CNS
[43] = system: SF-539 CNS
[44] = system: SK-MEL-2 melanoma
[45] = system: SK-MEL-28 melanoma
[46] = system: SK-MEL-5 melanoma
[47] = system: SK-OV-3 ovarian
[48] = system: SN12C renal
[49] = system: SNB-19 CNS
[50] = system: SNB-75 CNS
[51] = system: SR leukemia
[52] = system: SW-620 colon
[53] = system: T-47D breast
[54] = system: TK-10 renal
[55] = system: U251 CNS
[56] = system: UACC-257 melanoma
[57] = system: UACC-62 melanoma
[58] = system: UO-31 renal

Compound: COc1cc(N2CCC(N3CCN(C)CC3)CC2)ccc1Nc1ncc(Cl)c(Nc2ccccc2P(C)(C)=O)n1
- GI50 [1]: 1.12 µM
- TGI [1]: 7.59 µM
- GI50 [2]: 0.305 µM
- TGI [2]: 1.12 µM
- GI50 [3]: 1.21 µM
- TGI [3]: 14.1 µM
- GI50 [4]: 1.12 µM
- TGI [4]: 9.65 µM
- GI50 [5]: 3.07 µM
- TGI [5]: 13.5 µM
- GI50 [6]: 1.99 µM
- TGI [6]: 9.58 µM
- GI50 [7]: 4.41 µM
- TGI [7]: 98 µM
- GI50 [8]: 0.381 µM
- TGI [8]: 2.08 µM
- GI50 [9]: 0.933 µM
- TGI [9]: 20.5 µM
- GI50 [10]: 0.472 µM
- TGI [10]: > 100 µM
- GI50 [11]: 3.99 µM
- TGI [11]: > 100 µM
- GI50 [12]: 1.09 µM
- TGI [12]: 13.3 µM
- GI50 [13]: 2.97 µM
- TGI [13]: > 40.4 µM
- GI50 [14]: 1.67 µM
- TGI [14]: > 35.6 µM
- GI50 [15]: 0.797 µM
- TGI [15]: > 32 µM
- GI50 [16]: 0.4 µM
- TGI [16]: 2.41 µM
- GI50 [17]: 2.46 µM
- TGI [17]: 24.1 µM
- GI50 [18]: 0.204 µM
- TGI [18]: 4.81 µM
- GI50 [19]: 0.216 µM
- TGI [19]: 0.784 µM
- GI50 [20]: 3.45 µM
- TGI [20]: > 100 µM
- GI50 [21]: 2.69 µM
- TGI [21]: > 100 µM
- GI50 [22]: 2.8 µM
- GI50 [23]: 2.12 µM
- TGI [23]: > 34 µM
- GI50 [24]: 7.66 µM
- TGI [24]: > 100 µM
- GI50 [25]: 0.414 µM
- TGI [25]: > 100 µM
- GI50 [26]: 0.625 µM
- TGI [26]: 31.7 µM
- GI50 [27]: 2.94 µM
- TGI [27]: > 100 µM
- GI50 [28]: 4.58 µM
- TGI [28]: > 100 µM
- GI50 [29]: 0.417 µM
- TGI [29]: 5.21 µM
- GI50 [30]: 1.62 µM
- TGI [30]: > 100 µM
- GI50 [31]: 2.47 µM
- TGI [31]: > 40 µM
- GI50 [32]: 0.759 µM
- TGI [32]: 17.3 µM
- GI50 [33]: 3 µM
- GI50 [34]: 2.15 µM
- TGI [34]: 38.2 µM
- GI50 [35]: 1.3 µM
- TGI [35]: > 47.6 µM
- GI50 [36]: 0.379 µM
- TGI [36]: > 100 µM
- GI50 [37]: 5.05 µM
- TGI [37]: > 100 µM
- GI50 [38]: 4.19 µM
- TGI [38]: > 100 µM
- GI50 [39]: 3.89 µM
- TGI [39]: 39.8 µM
- GI50 [40]: 0.642 µM
- TGI [40]: 2.4 µM
- GI50 [41]: 1.34 µM
- TGI [41]: 14 µM
- GI50 [42]: 2.85 µM
- TGI [42]: > 100 µM
- GI50 [43]: 2.1 µM
- TGI [43]: 7.5 µM
- GI50 [44]: 2.67 µM
- TGI [44]: 30.6 µM
- GI50 [45]: 18.5 µM
- TGI [45]: > 100 µM
- GI50 [46]: 11.9 µM
- TGI [46]: > 100 µM
- GI50 [47]: 0.992 µM
- TGI [47]: 5 µM
- GI50 [48]: 1.03 µM
- TGI [48]: > 100 µM
- GI50 [49]: 3.09 µM
- TGI [49]: > 100 µM
- GI50 [50]: 1.66 µM
- TGI [50]: 4.83 µM
- TGI [51]: > 33.6 µM
- GI50 [52]: 1.71 µM
- TGI [52]: 19.6 µM
- GI50 [53]: > 100 µM
- TGI [53]: > 100 µM
- GI50 [54]: 0.296 µM
- TGI [54]: 3.09 µM
- GI50 [55]: 3.79 µM
- TGI [55]: > 100 µM
- GI50 [56]: 38.8 µM
- TGI [56]: > 100 µM
- GI50 [57]: 2.94 µM
- TGI [57]: > 72.2 µM
- GI50 [58]: 0.734 µM
- TGI [58]: 2.7 µM

Compound: NCCCNc1ccc2c(c1)[n+]([O-])c1ccccc1[n+]2[O-]
- TGI [1]: > 100 µM
- TGI [2]: 47.8 µM
- TGI [3]: > 100 µM
- TGI [4]: 77.7 µM
- TGI [5]: 64 µM
- TGI [7]: 91.4 µM
- TGI [8]: 45.2 µM
- TGI [9]: 70.8 µM
- TGI [10]: > 100 µM
- TGI [11]: > 100 µM
- TGI [12]: 63.7 µM
- TGI [13]: 66.3 µM
- TGI [14]: 57.6 µM
- TGI [15]: 93.5 µM
- TGI [16]: 62.6 µM
- TGI [17]: 60 µM
- TGI [18]: > 100 µM
- TGI [19]: 41.5 µM
- TGI [20]: > 100 µM
- TGI [21]: 80.3 µM
- TGI [22]: 94.3 µM
- TGI [23]: > 100 µM
- TGI [24]: 46.6 µM
- TGI [25]: > 100 µM
- TGI [26]: 57.6 µM
- TGI [27]: > 100 µM
- TGI [28]: 67.2 µM
- TGI [29]: 45.5 µM
- TGI [30]: 97.5 µM
- TGI [31]: 53.6 µM
- TGI [32]: 30.7 µM
- TGI [33]: > 100 µM
- TGI [34]: 50.5 µM
- TGI [35]: 92.6 µM
- TGI [36]: > 100 µM
- TGI [37]: > 100 µM
- TGI [38]: > 100 µM
- TGI [39]: 54.4 µM
- TGI [40]: 55.9 µM
- TGI [41]: > 100 µM
- TGI [42]: > 100 µM
- TGI [43]: 53.9 µM
- TGI [45]: > 100 µM
- TGI [46]: 31.8 µM
- TGI [47]: 50.4 µM
- TGI [48]: > 100 µM
- TGI [49]: > 100 µM
- TGI [51]: 61.4 µM
- TGI [52]: > 100 µM
- TGI [53]: 69.6 µM
- TGI [54]: > 100 µM
- TGI [55]: 91.9 µM
- TGI [56]: 83.2 µM
- TGI [57]: 49.2 µM
- TGI [58]: > 100 µM

Compound: CCOC(=O)/C(C#N)=C(/NS(=O)(=O)c1cc(C)c(Cl)cc1[S-])[n+]1ccc(N(C)C)cc1
- TGI [1]: > 100 µM
- TGI [2]: > 100 µM
- TGI [3]: > 100 µM
- TGI [4]: > 100 µM
- TGI [5]: > 100 µM
- TGI [6]: > 100 µM
- TGI [7]: > 100 µM
- TGI [8]: > 100 µM
- TGI [9]: > 100 µM
- TGI [10]: > 100 µM
- TGI [11]: > 100 µM
- TGI [12]: > 100 µM
- TGI [13]: > 100 µM
- TGI [14]: > 100 µM
- TGI [15]: > 100 µM
- TGI [16]: 91.7 µM
- TGI [17]: > 100 µM
- TGI [18]: > 100 µM
- TGI [19]: > 100 µM
- TGI [20]: > 100 µM
- TGI [21]: > 100 µM
- TGI [23]: > 100 µM
- TGI [24]: > 100 µM
- TGI [25]: > 100 µM
- TGI [26]: > 100 µM
- TGI [27]: > 100 µM
- TGI [28]: > 100 µM
- TGI [29]: > 100 µM
- TGI [30]: > 100 µM
- TGI [31]: > 100 µM
- TGI [32]: > 100 µM
- TGI [33]: > 100 µM
- TGI [34]: > 100 µM
- TGI [35]: > 100 µM
- TGI [36]: > 100 µM
- TGI [37]: > 100 µM
- TGI [38]: > 100 µM
- TGI [39]: > 100 µM
- TGI [40]: > 100 µM
- TGI [41]: > 100 µM
- TGI [42]: > 100 µM
- TGI [43]: > 100 µM
- TGI [44]: > 100 µM
- TGI [45]: > 100 µM
- TGI [46]: > 100 µM
- TGI [47]: > 100 µM
- TGI [48]: > 100 µM
- TGI [49]: > 100 µM
- TGI [51]: > 100 µM
- TGI [53]: > 100 µM
- TGI [54]: > 100 µM
- TGI [55]: > 100 µM
- TGI [56]: > 100 µM
- TGI [57]: > 100 µM
- TGI [58]: > 100 µM
